Laboratory results as given in PubChem BioAssay (NCI).
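Method: 48-hour compound exposure of cells in 96-well plates, five concentrations, linear interpolation of endpoints. The concentration for full growth arrest is given as TGI.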

What was measured:
Test in all cases: inhibition of tumour cell growth, NCI panel, 48 h
786-0 renal = system: 786-0 renal
A498 renal = system: A498 renal
A549 NSCLC = system: A549 NSCLC
ACHN renal = system: ACHN renal
CAKI-1 renal = system: CAKI-1 renal
CCRF-CEM leukemia = system: CCRF-CEM leukemia
COLO 205 colon = system: COLO 205 colon
DU-145 prostate = system: DU-145 prostate
EKVX NSCLC = system: EKVX NSCLC
HCC-2998 colon = system: HCC-2998 colon
HCT-116 colon = system: HCT-116 colon
HCT-15 colon = system: HCT-15 colon
HL-60(TB) leukemia = system: HL-60(TB) leukemia
HOP-62 NSCLC = system: HOP-62 NSCLC
HOP-92 NSCLC = system: HOP-92 NSCLC
HS 578T breast = system: HS 578T breast
HT29 colon = system: HT29 colon
IGROV1 ovarian = system: IGROV1 ovarian
K-562 leukemia = system: K-562 leukemia
KM12 colon = system: KM12 colon
LOX IMVI melanoma = system: LOX IMVI melanoma
M14 melanoma = system: M14 melanoma
MALME-3M melanoma = system: MALME-3M melanoma
MCF7 breast = system: MCF7 breast
MDA-MB-231 breast = system: MDA-MB-231 breast
MDA-MB-435 = system: MDA-MB-435
MDA-N = system: MDA-N
MOLT-4 leukemia = system: MOLT-4 leukemia
NCI-H226 lung = system: NCI-H226 lung
NCI-H23 lung = system: NCI-H23 lung
NCI-H460 lung = system: NCI-H460 lung
NCI-H522 lung = system: NCI-H522 lung
NCI/ADR-RES ovarian = system: NCI/ADR-RES ovarian
OVCAR-3 ovarian = system: OVCAR-3 ovarian
OVCAR-4 ovarian = system: OVCAR-4 ovarian
OVCAR-5 ovarian = system: OVCAR-5 ovarian
OVCAR-8 ovarian = system: OVCAR-8 ovarian
PC-3 prostate = system: PC-3 prostate
RPMI-8226 leukemia = system: RPMI-8226 leukemia
RXF 393 renal = system: RXF 393 renal
SF-268 CNS = system: SF-268 CNS
SF-295 CNS = system: SF-295 CNS
SF-539 CNS = system: SF-539 CNS
SK-MEL-2 melanoma = system: SK-MEL-2 melanoma
SK-MEL-28 melanoma = system: SK-MEL-28 melanoma
SK-MEL-5 melanoma = system: SK-MEL-5 melanoma
SK-OV-3 ovarian = system: SK-OV-3 ovarian
SN12C renal = system: SN12C renal
SNB-19 CNS = system: SNB-19 CNS
SNB-75 CNS = system: SNB-75 CNS
SR leukemia = system: SR leukemia
SW-620 colon = system: SW-620 colon
T-47D breast = system: T-47D breast
TK-10 renal = system: TK-10 renal
U251 CNS = system: U251 CNS
UACC-257 melanoma = system: UACC-257 melanoma
UO-31 renal = system: UO-31 renal

Measured: TGI

CCc1cc2c(cc1CCCC(=O)O)CC1(Cc3ccc(C(=O)O)cc3C1)C2 (configuration not stated)
> 100 µM: all assays above
